Values of other authors, collected in patent US20020111317A1, “Sixteen-membered macrolide compounds” (priority 2000, published 2002).

How the values were obtained:
[1] = target: wildtype ribosomes; settings: read-out: Kd using wildtype ribosomes
[2] = target: methylated ribosome (e.g., A2058G mutant); settings: read-out: Kd using methylated ribosome

SMILES | Kd [1] [µM] | Kd [2] [µM]
CC[C@H]1OC(=O)[C@H](C)[C@@H](O[C@H]2C[C@@](C)(OC)[C@@H](O)[C@H](C)O2)[C@H](C)[C@@H](O[C@@H]2O[C@H](C)C[C@H](N(C)C)[C@H]2O)[C@](C)(O)C[C@@H](C)C(=O)[C@H](C)[C@@H](O)[C@]1(C)O [erythromycin A] | ~0.014 | ~190
CC[C@H]1OC(=O)[C@H](C)C(=O)[C@H](C)[C@@H](O[C@@H]2O[C@H](C)C[C@H](N(C)C)[C@H]2O)[C@](C)(OC)C[C@@H](C)C(=O)[C@H](C)[C@H]2N(CCCCn3cnc(-c4cccnc4)c3)C(=O)O[C@]12C [telithromycin] | ~0.0013 | ~0.058
